Measured values as given in US20210139435A1, “PROSTAGLANDIN ANALOGS AND USES THEREOF” (Lifex Biolabs, Inc., priority 2019, published 2021).

Molecular target: T1, mouse Nurr1 full-length (Mus musculus, UniProt Q06219)
T1 construct: pcDNA3.1 Myc/His mouse Nurr1 full-length construct; expressed in transfected cells; host or cells: SK-N-BE2C
Assay: Luciferase reporter gene assay for Nurr1 transcriptional activity in SK-N-BE2C cells
Assay type: cell-based
Conditions: relative activity over control (luminescence value; 1.0)
Experimental: To investigate whether the PG analogs of the present invention activate Nurr1 function, the inventors of the present invention employed an reporter gene assay and examined the transcriptional activation as described in Kim, C.-H. et al., Proceedings of the National Academy of Sciences 112, 8756-8761, doi:10.1073/pnas.1509742112 (2015).
The gene assay was performed by Luciferase assay as described below:
[Protocol for Luciferase Assay to Determine Nurr1 Transcriptional Activity] • 1. SK-N-BE2C cells were maintained in HyClone™ DMEM High Glucose (Cat. No.: SH30022.01) with 10% (v/v) fetal bovine serum (FBS), 100 units/ml penicillin and 100 μg/ml streptomycin. • 2. Seed 1.5×10^5 SK-N-BE2C cells/well into a 24-well plate and incubate at 37° C. with 5% CO2 for 24 hours. • 3. After 24 hours, transfect cells with pcDNA3.1 Myc/His mouse Nurr1 full-length construct, firefly luciferase reporter vector (pGL-3 basic from Promega, Cat. No.:E1751; with appropriate response element cloned in) and Renilla luciferase control vector (pRL-null from Promega, Cat. No.:E2271) in the ratio of 8:1:1 (Nurr1: firefly: renilla) or 400 ng, 50 ng and 50 ng respectively, amounting to a total of 500 ng in the 50 μl transfection mix for 1 well. • 4. To make the transfection mix, first prepare the DNA with P3000 reagent by adding the appropriate amount of DNA with 1 μl P3000 reagent and top up with Opti-MEM® I Reduced-Serum Media (from ThermoFisher Scientific [Cat. No.: 31985070]) to 25 μl. Incubate for 5 minutes at room temperature. • 5. Make another mix consisting of 1 μl Lipofectamine 3000 reagent with 24 μl Opti-MEM® I Reduced-Serum Media per well. Add this Lipofectamine mix to the previous DNA-P3000 mix (after the previous 5 minute incubation) and incubate them for 15 minutes at room temperature. [P3000:Lipofectamine=1:1]. • 6. In the meantime, change the media in the sample wells with fresh DMEM media without antibiotics. • 7. After 15 minutes incubation, add the 50 μl transfection mix into each well and incubate the plate for 24 hours at 37° C. with 5% CO2. • 8. After 24 hours, change the media to normal DMEM media with antibiotics and add various doses of compounds into designated wells and incubate the plate for another 24 hours at 37° C. with 5% CO2. • 9. Following the 24-hour incubation period, luciferase assay can be conducted using Dual-Glo Luciferase® kit from Promega (Cat. No.: E2920). • 10. Lyse each tested wells for 15 minutes with 75 μl of passive lysis buffer provided in the Dual-Luciferase® kit from Promega (Cat. No.: E1910). [Alternatively, add 75 μl of PBS and 75 μl of Dual-Glo® Luciferase Reagent and incubate for 10 minutes at room temperature (cover the plate with foil to protect from light). Transfer the entire sample in each well to a Greiner CELLSTAR® 96-well white polystyrene plate then proceed to step 13]. • 11. After 15 minutes, transfer each lysed sample to a Greiner CELLSTAR® 96-well white polystyrene plate (Cat. No.:655083). • 12. To each well of lysed cells, add 75 μl of Dual-Glo® Luciferase Reagent and incubate for 10 minutes at room temperature (cover the plate with foil to protect from light). • 13. Set the measurement with a 10-second integrated measurement period. • 14. Add 75 μl of Dual-Glo® Stop & Glo® reagent into each well and incubate for 10 minutes before commencing with the same parameters as before to determine the RLU for the Renilla luciferase. • 15. The averaged reading for wells corresponding to non-transfected cells can be subtracted from each RLU reading and duplicate/triplicate readings can then be averaged. Normalization of the luminescence reading for each well can be carried out by dividing the firefly luciferase RLU with the corresponding Renilla luciferase RLU. Each drug-treated well can then be normalized against the averaged DMSO-treated well reading.

T1 sequence (Q06219 whole entry): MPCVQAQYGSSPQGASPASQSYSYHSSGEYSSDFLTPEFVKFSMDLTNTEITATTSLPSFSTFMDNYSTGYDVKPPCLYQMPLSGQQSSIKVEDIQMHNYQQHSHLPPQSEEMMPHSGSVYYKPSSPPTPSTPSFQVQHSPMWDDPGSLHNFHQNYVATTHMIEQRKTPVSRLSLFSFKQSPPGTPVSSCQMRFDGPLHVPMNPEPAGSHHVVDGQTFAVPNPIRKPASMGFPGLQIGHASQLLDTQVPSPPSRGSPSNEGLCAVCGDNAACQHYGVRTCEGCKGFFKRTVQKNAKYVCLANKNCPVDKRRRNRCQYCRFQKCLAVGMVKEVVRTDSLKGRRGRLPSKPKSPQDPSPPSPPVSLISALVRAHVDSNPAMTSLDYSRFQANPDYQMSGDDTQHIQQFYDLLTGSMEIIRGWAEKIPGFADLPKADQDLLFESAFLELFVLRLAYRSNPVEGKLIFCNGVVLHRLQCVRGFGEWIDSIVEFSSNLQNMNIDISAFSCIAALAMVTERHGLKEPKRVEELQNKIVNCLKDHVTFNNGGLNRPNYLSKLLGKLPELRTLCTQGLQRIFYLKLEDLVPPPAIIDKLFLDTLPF

**Q.** `CCCCC(C)(O)C/C=C/[C@H]1[C@H](O)CC(=O)[C@@H]1CCCCCCC(=O)O` (mixture of isomers) [Compound 94, Misoprostol acid] was tested. Which “Fold activity (1 uM)” value did it give?
**A.** Its value is “B (1.1~2.0 (moderate))”.

**Q.** Which “Fold activity (1 uM)” value does the source give for `CCCCC[C@H](O)/C=C/[C@H]1[C@H](O)CC(=O)[C@@H]1C/C=C/CCCC(=O)O` (relative stereo) [Compound 60, 5-trans Prostaglandin E2] here?
**A.** Its value is “B (1.1~2.0 (moderate))”.

**Q.** `CC/C=C/C[C@H](O)/C=C/[C@H]1[C@H](O)CC(=O)[C@@H]1C/C=C\CCCC(=O)O` (relative stereo) [Compound 78, 17-trans Prostaglandin E3] was tested. Which “Fold activity (1 uM)” value did it give?
**A.** Its value is “A (above 2.0 (high activity))”.

**Q.** With `CCCCC[C@H](O)/C=C/[C@H]1[C@H](O)CC(=O)[C@@H]1CCCCCCC(=O)Oc1ccc(NC(=O)c2ccccc2)cc1` [Compound 1, 4-Benzamidophenyl-7-((1R,2R,3R)-3-hydroxy-2-((S,E)-3-hydroxyoct-1-enyl)-5-oxocyclopentyl)heptanoate] as the compound, how does the “Fold activity (1 uM)” value read?
**A.** The value was “A (above 2.0 (high activity))”.

**Q.** `CCCCC(C)(O)C/C=C/[C@H]1[C@H](O)CC(=O)[C@@H]1CCCCCCC(=O)Oc1ccc(NC(=O)c2ccccc2)cc1` (stereo partly drawn) [Compound 2, 4-Benzamidophenyl-7-((1R,2R,3R)-3-hydroxy-2-((E)-4-hydroxy-4-methyloct-1-en-1-yl)-5-oxocyclopentyl)heptanoate] was tested. Which “Fold activity (1 uM)” value did it give?
**A.** The value was “A (above 2.0 (high activity))”.

**Q.** With `CCCCC[C@H](O)/C=C/[C@H]1[C@H](O)CC(=O)[C@@H]1CCCCCCC(=O)Nc1ccc(NC(=O)c2ccccc2)cc1` [Compound 3, N-(4-(7-((1R,2R,3R)-3-hydroxy-2-((S,E)-3-hydroxyoct-1-en-1-yl)-5-oxocyclopentyl)heptanamido)phenyl)benzamide] as the compound, how does the “Fold activity (1 uM)” value read?
**A.** Its value is “B (1.1~2.0 (moderate))”.

**Q.** For `CCCCC[C@H](O)/C=C/[C@H]1[C@H](O)CC(=O)[C@@H]1CCCCCCC(=O)Nc1ccccc1` [Compound 4, 7-((1R,2R,3R)-3-hydroxy-2-((S,E)-3-hydroxyoct-1-enyl)-5-oxocyclopentyl)-N-phenylheptanamide], which “Fold activity (1 uM)” value is on record?
**A.** Its value is “A (above 2.0 (high activity))”.

**Q.** How did the “Fold activity (1 uM)” value turn out when `CCCCC[C@H](O)/C=C/[C@H]1[C@H](O)CC(=O)[C@@H]1CCCCCCC(=O)Nc1ccc(Cl)cc1` [Compound 5, N-(4-chlorophenyl)-7-((1R,2R,3R)-3-hydroxy-2-((S,E)-3-hydroxyoct-1-enyl)-5-oxocyclopentyl)heptanamide] was run?
**A.** Its value is “A (above 2.0 (high activity))”.

**Q.** `CCCCC[C@H](O)/C=C/[C@H]1[C@H](O)CC(=O)[C@@H]1CCCCCCC(=O)Nc1cccc(C(=O)Nc2ccccc2)c1` [Compound 6, 3-(7-((1R,2R,3R)-3-hydroxy-2-((S,E)-3-hydroxyoct-1-enyl)-5-oxocyclopentyl)heptanamido)-N-phenylbenzamide] was tested. Which “Fold activity (1 uM)” value did it give?
**A.** Its value is “B (1.1~2.0 (moderate))”.

**Q.** For `CCCCC[C@H](O)/C=C/[C@H]1[C@H](O)CC(=O)[C@@H]1CCCCCCC(=O)Nc1ccc2nccnc2c1` [Compound 7, 7-((1R,2R,3R)-3-hydroxy-2-((S,E)-3-hydroxyoct-1-enyl)-5-oxocyclopentyl)-N-(quinoxalin-6-yl)heptanamide], which “Fold activity (1 uM)” value is on record?
**A.** Its value is “A (above 2.0 (high activity))”.

**Q.** For `CCCCC[C@H](O)/C=C/[C@H]1[C@H](O)CC(=O)[C@@H]1CCCCCCC(=O)Nc1ccc2cccnc2c1` [Compound 8, 7-((1R,2R,3R)-3-hydroxy-2-((S,E)-3-hydroxyoct-1-enyl)-5-oxocyclopentyl)-N-(quinolin-7-yl)heptanamide], which “Fold activity (1 uM)” value is on record?
**A.** The value was “A (above 2.0 (high activity))”.

**Q.** Which “Fold activity (1 uM)” value does the source give for `CCCCC[C@H](O)/C=C/[C@H]1[C@H](O)CC(=O)[C@@H]1CCCCCCC(=O)NOc1ccccc1` [Compound 9, 7-((1R,2R,3R)-3-hydroxy-2-((S,E)-3-hydroxyoct-1-enyl)-5-oxocyclopentyl)-N-phenoxyheptanamide] here?
**A.** Its value is “A (above 2.0 (high activity))”.

**Q.** Which “Fold activity (1 uM)” value does the source give for `CCCCC(C)(O)C/C=C/[C@H]1[C@H](O)CC(=O)[C@@H]1CCCCCCC(=O)NOc1ccccc1` (stereo partly drawn) [Compound 10, 7-((1R,2R,3R)-3-hydroxy-2-((E)-4-hydroxy-4-methyloct-1-enyl)-5-oxocyclopentyl)-N-phenoxyheptanamide] here?
**A.** The value was “A (above 2.0 (high activity))”.

**Q.** With `CCCCCC(O)/C=C/[C@H]1[C@H](O)CC(=O)[C@@H]1CCCCCCC(=O)Oc1ccc(NC(=O)c2ccc(F)cc2)cc1` (stereo partly drawn) [Compound 11, 4-(4-fluorobenzamido)phenyl 7-((1R,2R,3R)-3-hydroxy-2-((E)-3-hydroxyoct-1-enyl)-5-oxocyclopentyl)heptanoate] as the compound, how does the “Fold activity (1 uM)” value read?
**A.** The value was “A (above 2.0 (high activity))”.

**Q.** With `CCCCC[C@H](O)/C=C/[C@H]1[C@H](O)CC(=O)[C@@H]1CCCCCCC(=O)Oc1ccc(NC(=O)c2ccc(F)c(F)c2)cc1` [Compound 12, 4-(3,4-difluorobenzamido)phenyl 7-((1R,2R,3R)-3-hydroxy-2-((S,E)-3-hydroxyoct-1-enyl)-5-oxocyclopentyl)heptanoate] as the compound, how does the “Fold activity (1 uM)” value read?
**A.** The value was “A (above 2.0 (high activity))”.

**Q.** For `CCCCC[C@H](O)/C=C/[C@H]1[C@H](O)CC(=O)[C@@H]1CCCCCCC(=O)Oc1ccc(NC(=O)c2cc(F)cc(F)c2)cc1` [Compound 13, 4-(3,5-difluorobenzamido)phenyl 7-((1R,2R,3R)-3-hydroxy-2-((S,E)-3-hydroxyoct-1-enyl)-5-oxocyclopentyl)heptanoate], which “Fold activity (1 uM)” value is on record?
**A.** Its value is “A (above 2.0 (high activity))”.

**Q.** `CCCCC[C@H](O)/C=C/[C@H]1[C@H](O)CC(=O)[C@@H]1CCCCCCC(=O)Oc1cc(OC)c(OC)c(OC)c1` [Compound 14, 3,4,5-trimethoxyphenyl 7-((1R,2R,3R)-3-hydroxy-2-((S,E)-3-hydroxyoct-1-enyl)-5-oxocyclopentyl)heptanoate] was tested. Which “Fold activity (1 uM)” value did it give?
**A.** The value was “A (above 2.0 (high activity))”.

**Q.** How did the “Fold activity (1 uM)” value turn out when `CCCCC[C@H](O)/C=C/[C@H]1[C@H](O)CC(=O)[C@@H]1CCCCCCC(=O)OCc1ccccc1` [Compound 15, benzyl 7-((1R,2R,3R)-3-hydroxy-2-((S,E)-3-hydroxyoct-1-enyl)-5-oxocyclopentyl)heptanoate] was run?
**A.** Its value is “A (above 2.0 (high activity))”.

**Q.** Which “Fold activity (1 uM)” value does the source give for `CCCCC[C@@H](O)/C=C/[C@H]1C(=O)C[C@H](O)[C@@H]1C/C=C\CCCC(=O)O` [Compound 16, 15(R)-Prostaglandin D2] here?
**A.** Its value is “A (above 2.0 (high activity))”.

**Q.** With `CCCCCC(O)/C=C/C1C(=O)CC(O)C1C/C=C\CCCC(=O)OCC(O)CO` (centres unmarked) [Compound 17, Prostaglandin D2-1-glyceryl ester] as the compound, how does the “Fold activity (1 uM)” value read?
**A.** Its value is “B (1.1~2.0 (moderate))”.

**Q.** `CCCCC[C@H](O)/C=C/[C@H]1[C@H](O)CC(=O)[C@@H]1CCCCCCC(=O)NCCO` [Compound 18, Prostaglandin E1 Ethanolamide] was tested. Which “Fold activity (1 uM)” value did it give?
**A.** The value was “A (above 2.0 (high activity))”.

**Q.** For `CCCCCC(=O)/C=C/[C@H]1[C@H](O)CC(=O)[C@@H]1CCCCCCC(=O)O` [Compound 19, 15-keto Prostaglandin E1], which “Fold activity (1 uM)” value is on record?
**A.** The value was “B (1.1~2.0 (moderate))”.

**Q.** `CCCCC[C@H](O)/C=C/[C@H]1[C@H](O)CC(=O)[C@@H]1C/C=C\CCCC(=O)O` [Compound 20, Prostaglandin E2] was tested. Which “Fold activity (1 uM)” value did it give?
**A.** Its value is “A (above 2.0 (high activity))”.

**Q.** `CCCCC[C@H](O)/C=C/[C@H]1[C@@H](O)CC(=O)[C@@H]1C/C=C\CCCC(=O)O` [Compound 21, 11b-Prostaglandin E2] was tested. Which “Fold activity (1 uM)” value did it give?
**A.** Its value is “B (1.1~2.0 (moderate))”.

**Q.** Which “Fold activity (1 uM)” value does the source give for `CS(=O)(=O)NC(=O)CCC/C=C\C[C@H]1C(=O)C[C@@H](O)[C@@H]1/C=C/[C@@H](O)COc1ccccc1` [Compound 22, Sulprostone] here?
**A.** Its value is “B (1.1~2.0 (moderate))”.

**Q.** With `O=C(O)CCC/C=C\C[C@H]1[C@@H](O)CC(=O)[C@@H]1/C=C/[C@@H](O)COc1cccc(C(F)(F)F)c1` [Compound 23, 11-keto Fluprostenol] as the compound, how does the “Fold activity (1 uM)” value read?
**A.** Its value is “B (1.1~2.0 (moderate))”.
